Experiments:
POLCO = experiment: Post-emergence herbicidal action against POLCO; format: in vivo, Polygonum convolvulus; conditions: application rate 80 g/ha, rated visually about 3 weeks after treatment
Protocol: (§1) [table] 2. Post-emergence herbicidal action against harmful plants and crop plant compatibility Seeds of monocotyledonous and dicotyledonous weeds and crop plants are placed in sandy loam in plastic or wood-fibre pots, covered with soil and cultivated in a greenhouse under controlled growth conditions. 2 to 3 weeks after sowing, the test plants are treated at the one-leaf stage. The compounds of the invention, formulated in the form of wettable powders (WP) or as emulsion concentrates (EC), are then sprayed onto the green parts of the plants as aqueous suspension or emulsion with addition of 0.5% additive at a water application rate of 600 l/ha (converted). After the test plants have been kept in the greenhouse under optimum growth conditions for about 3 weeks, the activity of the preparations is rated visually in comparison to untreated controls. For example, 100% activity=the plants have died, 0% activity=like control plants.

HORMU = experiment: Post-emergence herbicidal action against HORMU; format: in vivo, Hordeum murinum; conditions: application rate 80 g/ha
Protocol: as §1

ECHCG = experiment: Post-emergence herbicidal action against ECHCG; format: in vivo, Echinochloa crus-galli; conditions: application rate 80 g/ha, rated visually after about 3 weeks
Protocol: as §1

ABUTH = experiment: Post-emergence herbicidal action against ABUTH; format: in vivo, Abutilon theophrasti; conditions: application rate 80 g/ha, rated visually about 3 weeks after treatment
Protocol: as §1

ALOMY = experiment: Post-emergence herbicidal action against ALOMY; format: in vivo, Alopecurus myosuroides; conditions: application rate 80 g/ha, rated visually after about 3 weeks
Protocol: as §1

STEME = experiment: Post-emergence herbicidal action against STEME; format: in vivo, Stellaria media; conditions: application rate 80 g/ha, rated visually about 3 weeks after treatment
Protocol: as §1

AMARE = experiment: Post-emergence herbicidal action against AMARE; format: in vivo, Amaranthus retroflexus; conditions: application rate 80 g/ha, rated visually about 3 weeks after treatment
Protocol: as §1

AVEFA = experiment: Post-emergence herbicidal action against AVEFA; format: in vivo, Avena fatua; conditions: application rate 80 g/ha, rated visually after about 3 weeks
Protocol: as §1

VERPE = experiment: Post-emergence herbicidal action against VERPE; format: in vivo, Veronica persica; conditions: application rate 80 g/ha
Protocol: as §1

SETVI = experiment: Post-emergence herbicidal action against SETVI; format: in vivo, Setaria viridis; conditions: application rate 80 g/ha, rated visually after about 3 weeks
Protocol: as §1

PHBPU = experiment: Post-emergence herbicidal action against PHBPU; format: in vivo, Pharbitis purpurea; conditions: application rate 80 g/ha, rated visually about 3 weeks after treatment
Protocol: as §1

LOLRI = experiment: Post-emergence herbicidal action against LOLRI; format: in vivo, Lolium rigidum; conditions: application rate 80 g/ha, rated visually after about 3 weeks
Protocol: as §1

VIOTR = experiment: Post-emergence herbicidal action against VIOTR; format: in vivo, Viola tricolor; conditions: application rate 80 g/ha, rated visually about 3 weeks after treatment
Protocol: as §1

C=CC1(C(=O)NC2C=CC(C(=O)NC(C(=O)OC)C(C)C)C2)CC(c2cc(F)cc(F)c2)=NO1 (single isomer, unassigned) [II-26]
80%: Herbicidal action against [%] POLCO (POLCO) | Herbicidal action against [%] ECHCG (ECHCG) | Herbicidal action against [%] ABUTH (ABUTH) | Herbicidal action against [%] VERPE (VERPE) | Herbicidal action against [%] SETVI (SETVI) | Herbicidal action against [%] PHBPU (PHBPU)
100%: Herbicidal action against [%] HORMU (HORMU) | Herbicidal action against [%] ALOMY (ALOMY) | Herbicidal action against [%] LOLRI (LOLRI)
90%: Herbicidal action against [%] STEME (STEME) | Herbicidal action against [%] AMARE (AMARE) | Herbicidal action against [%] AVEFA (AVEFA)

CC1(C(=O)N[C@H]2C=C[C@@H](C(=O)OCC(F)(F)F)C2)CC(c2cc(F)cc(F)c2)=NO1 (some centres unmarked) [Example I-010]
90%: Herbicidal action against [%] POLCO (POLCO) | Herbicidal action against [%] HORMU (HORMU) | Herbicidal action against [%] ECHCG (ECHCG) | Herbicidal action against [%] ALOMY (ALOMY) | Herbicidal action against [%] AMARE (AMARE) | Herbicidal action against [%] AVEFA (AVEFA) | Herbicidal action against [%] VERPE (VERPE) | Herbicidal action against [%] SETVI (SETVI) | Herbicidal action against [%] PHBPU (PHBPU) | Herbicidal action against [%] LOLRI (LOLRI)
80%: Herbicidal action against [%] ABUTH (ABUTH) | Herbicidal action against [%] STEME (STEME)

CCOC(=O)[C@@H]1C=C[C@H](NC(=O)C2(C(F)(F)F)CC(c3ccccc3)=NO2)C1 (some centres unmarked) [Example I-021]
90%: Herbicidal action against [%] POLCO (POLCO) | Herbicidal action against [%] HORMU (HORMU) | Herbicidal action against [%] ALOMY (ALOMY) | Herbicidal action against [%] AMARE (AMARE) | Herbicidal action against [%] SETVI (SETVI) | Herbicidal action against [%] LOLRI (LOLRI)
100%: Herbicidal action against [%] AVEFA (AVEFA)
80%: Herbicidal action against [%] ECHCG (ECHCG) | Herbicidal action against [%] ABUTH (ABUTH) | Herbicidal action against [%] STEME (STEME) | Herbicidal action against [%] VERPE (VERPE) | Herbicidal action against [%] PHBPU (PHBPU)

Cc1cc(Cl)cc(C2=NOC(C(=O)N[C@H]3C=C[C@@H](C(=O)OCC(F)(F)F)C3)(C(F)(F)F)C2)c1 (some centres unmarked) [Example I-029]
80%: Herbicidal action against [%] POLCO (POLCO) | Herbicidal action against [%] HORMU (HORMU) | Herbicidal action against [%] VIOTR (VIOTR) | Herbicidal action against [%] AVEFA (AVEFA) | Herbicidal action against [%] SETVI (SETVI)
90%: Herbicidal action against [%] ALOMY (ALOMY) | Herbicidal action against [%] AMARE (AMARE) | Herbicidal action against [%] VERPE (VERPE) | Herbicidal action against [%] LOLRI (LOLRI)

C=CC1(C(=O)NC2C=CC(C(=O)N3CCCO3)C2)CC(c2cc(F)cc(F)c2)=NO1 (centres unmarked) [II-28]
80%: Herbicidal action against [%] POLCO (POLCO) | Herbicidal action against [%] HORMU (HORMU) | Herbicidal action against [%] AMARE (AMARE) | Herbicidal action against [%] AVEFA (AVEFA) | Herbicidal action against [%] SETVI (SETVI)
100%: Herbicidal action against [%] ALOMY (ALOMY)
90%: Herbicidal action against [%] ECHCG (ECHCG) | Herbicidal action against [%] ABUTH (ABUTH) | Herbicidal action against [%] STEME (STEME) | Herbicidal action against [%] VERPE (VERPE) | Herbicidal action against [%] PHBPU (PHBPU) | Herbicidal action against [%] LOLRI (LOLRI)

CC(C)(NC(=O)C1C=CC(NC(=O)C2(C(F)(F)F)CC(c3cc(F)cc(F)c3)=NO2)C1)C(F)(F)F (centres unmarked) [II-38]
80%: Herbicidal action against [%] VIOTR (VIOTR)
90%: Herbicidal action against [%] AMARE (AMARE)

C=CC1(C(=O)N[C@H]2CC=C(C(=O)OC(C)C)C2)CC(c2cc(F)cc(F)c2)=NO1 (some centres unmarked) [III-13]
80%: Herbicidal action against [%] POLCO (POLCO) | Herbicidal action against [%] ABUTH (ABUTH) | Herbicidal action against [%] VERPE (VERPE) | Herbicidal action against [%] SETVI (SETVI)
90%: Herbicidal action against [%] HORMU (HORMU) | Herbicidal action against [%] ECHCG (ECHCG) | Herbicidal action against [%] ALOMY (ALOMY) | Herbicidal action against [%] STEME (STEME) | Herbicidal action against [%] AMARE (AMARE) | Herbicidal action against [%] AVEFA (AVEFA) | Herbicidal action against [%] PHBPU (PHBPU)
100%: Herbicidal action against [%] LOLRI (LOLRI)

— US12319664B2, “Herbicidally active 3-phenylisoxazoline-5-carboxamides of cyclopentenylcarboxylic acid derivatives” (Bayer Aktiengesellschaft, priority 2018, dated 2025)
